# Experimental data from paper PMC5608406, “In vivo activation of latent HIV with a synthetic bryostatin analog effects both latent cell "kick" and "kill" in strategy for virus eradication” (PLoS Pathogens, 2017).
# How the values were obtained:
# primary CD4+ T cells = assay: Induction of CD69 expression in primary CD4+ T cells; format: cell-based, human; details: 24h
# Method: Primary human cells from HIV seronegative individuals were cultured in “RF10 medium” consisting of RPMI 1640 medium supplemented with 10% fetal bovine serum (FBS, Omega Scientific), 100 U/mL of penicillin, and 100 μg/mL of streptomycin (Invitrogen). PBMCs were isolated using Ficoll-Paque Plus separation (GE Healthcare). Primary CD4+ T cells were separated from PBMCs by negative immunomagnetic selection using the CD4+ T cell Isolation Kit (Miltenyi Biotec) according to the manufacturer’s instructions. Cells were then exposed to compound for 24 hours before staining and flow cytometric analysis of CD69 levels. Compound incubations were performed by seeding 10^5 cells/well in 100 μL of RF10 media containing the appropriate concentration of compound in wells of a v-bottomed 96-well plate. Bryostatin 1 (Tocris bioscience) and Prostratin (LC Laboratories) were obtained commercially, and bryologs or prostratin analogs were synthesized as previously described.
# For human PBMC CD69 induction experiments, cells were stained with CD69-ECD (Beckman Coulter 6607110). During staining, cells were incubated at 4 °C for 20 minutes, washed with 2% FBS in PBS, and then resuspended in 2% paraformaldehyde. Stained samples were stored at 4 °C.
# Flow cytometry samples were analyzed using a Cytomics FC 500 (Beckman Coulter) or a LSR Fortessa (BD Biosciences) flow cytometer. Data were analyzed using FlowJo (v7) software.
# murine splenocytes = assay: In vivo bioactivity (CD69/CD25 in splenocytes) in C57/bl6 mice; details: intraperitoneal injection, 24h post-injection, maximum over ascending doses
# Method: C57/bl6 mice were obtained from the UCLA Department of Radiation Oncology. Compounds were suspended in DMSO and then further diluted in RF10 media to produce a final volume of 500 μL (containing a maximum 4% DMSO). These 500 μL volumes were administered to mice by intraperitoneal injection. Mice were monitored for acute toxicities and then sacrificed at the indicated times. Spleens were removed and disaggregated using a steel mesh, and then filtered through a 40 μm filter to produce a single-cell suspension. The resultant splenocytes were then stained for flow cytometry to analyze surface expression of relevant markers.
# During standard flow cytometry staining, samples of 10^5 cells were suspended in 50 μL of a 1:1 dilution of phosphate buffered saline (PBS):Human AB serum (Sigma). Staining of C57/bl6 mouse splenocytes was performed by adding the following anti-mouse fluorescent conjugated antibodies: CD3-Fluorescein isothiocyanate (FITC, eBioscience 11-0032-82); CD69-Phycoerythrin (PE, eBioscience 12-0691-83); and CD4-Allophycocyanin (APC, eBioscience 17-0041-83). In some experiments CD4-APC was replaced with CD25-APC (eBioscience 17-0251-82) and CD4-Phycoerythrin Cyanin 7 (PC7, eBioscience 25-0041-82). For humanized mouse studies, PBMC and splenocytes from BLT mice were stained with anti-mouse CD45-Alexa 700 (Biolegend 103128) and the following anti-human antibodies: CD45-e450 (eBioscience 48-0459-42); CD3-APC-780 (eBioscience; 47-0038-42); CD4-V500 (BD biosciences; 560768); CD8-Peridinin chlorophyll protein (PerCP)-710 (eBioscience 46-0087-42); CD25-PE (Beckman IM0479U); CD69-APC (Biolegend 310910); CD14-PE-Cy7 (Biolegend 325618). Cells were separately stained for anti-human CD45 e450- (eBioscience 48-0459-42) and anti-HA-Biotin PE (Roche 12158167001) followed by a secondary Streptavidin, R-Phycoerythrin Conjugate (Invitrogen s866) stain. This two-step stain was performed by incubating 1-2x10^6 cells at 4°C for 20–30 min, washing with 2% FBS in PBS, then adding the secondary stain, incubating again at 4°C for 20–30 min, and washing with 2% FBS in PBS before fixation with 2% paraformaldehyde. In some experiments, cell death was also evaluated by GHOST Red 780 (Tonbo Biosciences 13–0865) or Zombie Yellow (Biolegend 423104) stains. For this procedure, 10^6 cells were suspended in 100 μL PBS, and then the Zombie yellow and GHOST Red 780 dyes added. Cells were incubated for 20 min at room temperature in the dark and then washed twice with 2% FBS in PBS. Cells were then fixed with 2% paraformaldehyde and incubated for 20 min in the dark. In some experiments cells were then washed with 2% FBS in PBS, resuspended in 1:1 PBS:Human AB serum and then stained for human CD45 and HA, CD3-PE-Cy5 (Biolegend 300310), CD4-ECD (Beckman 6604727), CD8 Per-CO710 (eBioscience 46-0087-42) and CD3-APC (Cell signaling 9602S) as described above.
# [1] = phase I, ART-treated patients; cited from earlier work
Compound,CD69 expression (primary CD4+ T cells),CD4+ splenocytes expressing CD69 (murine splenocytes),safety in patients [1]
CC(=O)O[C@@]12C[C@@H](C)[C@@]3(O)[C@@H](C=C(CO)C[C@]4(O)C(=O)C(C)=C[C@@H]34)[C@@H]1C2(C)C [Prostratin],can each induce expression,–,–
CCC/C=C/C=C/C(=O)O[C@H]1/C(=C/C(=O)OC)C[C@H]2C[C@H]([C@@H](C)O)OC(=O)C[C@H](O)C[C@@H]3C[C@H](OC(C)=O)C(C)(C)[C@](O)(C[C@@H]4C/C(=C/C(=O)OC)C[C@H](/C=C/C(C)(C)[C@]1(O)O2)O4)O3 [bryostatin 1],can each induce expression,approximately 60%,safe at low doses
